The supplement of paper PMC8612539

How the values were obtained:
Pasteurella multocida = experiment: minimum inhibitory concentration (MIC)
Description: (§1)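 Broth microdilution MIC (Sensititre BOPO7F bovine plate, CLSI methods) of 19 antimicrobials against field isolates of P. multocida, M. haemolytica, H. somni (deep nasopharyngeal swabs) and E. coli, Enterococcus spp. (rectal swabs) from weaned dairy heifers. Incubation 16-24 h at 35 C. MIC is the lowest concentration preventing visible growth. Values with <= or > lie at the tested range limits. Trimethoprim-sulfamethoxazole is given as the trimethoprim component of a 1:19 mixture.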

Enterococcus spp. = experiment: minimum inhibitory concentration (MIC)
Description: as §1

COc1cc(Cc2cnc(N)nc2N)cc(OC)c1OC.Cc1cc(NS(=O)(=O)c2ccc(N)cc2)no1 [trimethoprim-sulfamethoxazole]
minimum inhibitory concentration [µg/mL]
Conditions | Enterococcus spp. | Pasteurella multocida
isolate (source animal id): 2 | ≤ 2 | –
isolate (source animal id): 10 | – | ≤ 2
isolate (source animal id): 11 | – | ≤ 2
isolate (source animal id): 12 | – | ≤ 2
isolate (source animal id): 19 | – | ≤ 2
isolate (source animal id): 23 | – | ≤ 2
isolate (source animal id): 26 | – | ≤ 2
isolate (source animal id): 30 | – | ≤ 2
isolate (source animal id): 34 | – | ≤ 2
isolate (source animal id): 35 | > 2 | –
isolate (source animal id): 36 | – | ≤ 2
isolate (source animal id): 37 | – | ≤ 2
isolate (source animal id): 42 | ≤ 2 | –
isolate (source animal id): 44 | > 2 | –
isolate (source animal id): 46 | – | ≤ 2
isolate (source animal id): 48 | – | ≤ 2
isolate (source animal id): 49 | – | ≤ 2
isolate (source animal id): 54 | – | ≤ 2
isolate (source animal id): 55 | – | ≤ 2
isolate (source animal id): 58 | – | ≤ 2
isolate (source animal id): 60 | – | ≤ 2
isolate (source animal id): 61 | – | ≤ 2
isolate (source animal id): 63 | – | ≤ 2
isolate (source animal id): 64 | – | ≤ 2
isolate (source animal id): 65 | – | ≤ 2
isolate (source animal id): 66 | – | ≤ 2
isolate (source animal id): 67 | – | ≤ 2
isolate (source animal id): 69 | – | ≤ 2
isolate (source animal id): 73 | – | ≤ 2
isolate (source animal id): 75 | – | ≤ 2
isolate (source animal id): 76 | – | ≤ 2
isolate (source animal id): 77 | – | ≤ 2
isolate (source animal id): 78 | – | ≤ 2
isolate (source animal id): 79 | ≤ 2 | –
isolate (source animal id): 80 | – | ≤ 2
isolate (source animal id): 82 | – | ≤ 2
isolate (source animal id): 83 | – | ≤ 2
isolate (source animal id): 88 | ≤ 2 | > 2
isolate (source animal id): 91 | ≤ 2 | –
isolate (source animal id): 92 | ≤ 2 | ≤ 2
isolate (source animal id): 94 | – | ≤ 2
isolate (source animal id): 98 | – | ≤ 2
isolate (source animal id): 104 | – | ≤ 2
isolate (source animal id): 111 | ≤ 2 | –
isolate (source animal id): 115 | – | > 2
isolate (source animal id): 117 | – | ≤ 2
isolate (source animal id): 118 | – | ≤ 2
isolate (source animal id): 121 | – | > 2
isolate (source animal id): 122 | > 2 | –
isolate (source animal id): 123 | ≤ 2 | –
isolate (source animal id): 124 | – | ≤ 2
isolate (source animal id): 125 | – | ≤ 2
isolate (source animal id): 128 | – | > 2
isolate (source animal id): 131 | – | ≤ 2
isolate (source animal id): 133 | ≤ 2 | –
isolate (source animal id): 135 | – | > 2
isolate (source animal id): 136 | – | > 2
isolate (source animal id): 140 | – | ≤ 2
isolate (source animal id): 144 | – | ≤ 2
isolate (source animal id): 146 | – | ≤ 2
isolate (source animal id): 150 | – | > 2
isolate (source animal id): 151 | – | > 2
isolate (source animal id): 153 | – | ≤ 2
isolate (source animal id): 155 | – | ≤ 2
isolate (source animal id): 157 | – | ≤ 2
isolate (source animal id): 158 | > 2 | –
isolate (source animal id): 160 | – | > 2
isolate (source animal id): 164 | – | > 2
isolate (source animal id): 165 | – | > 2
isolate (source animal id): 167 | – | ≤ 2
isolate (source animal id): 168 | ≤ 2 | ≤ 2
isolate (source animal id): 169 | ≤ 2 | ≤ 2
isolate (source animal id): 170 | – | ≤ 2
isolate (source animal id): 171 | ≤ 2 | ≤ 2
isolate (source animal id): 172 | – | ≤ 2
isolate (source animal id): 173 | – | ≤ 2
isolate (source animal id): 174 | – | ≤ 2
isolate (source animal id): 175 | ≤ 2 | ≤ 2
isolate (source animal id): 176 | – | ≤ 2
isolate (source animal id): 177 | ≤ 2 | ≤ 2
isolate (source animal id): 178 | – | ≤ 2
isolate (source animal id): 179 | – | ≤ 2
isolate (source animal id): 181 | ≤ 2 | –
isolate (source animal id): 182 | ≤ 2 | ≤ 2
isolate (source animal id): 183 | ≤ 2 | –
isolate (source animal id): 187 | ≤ 2 | –
isolate (source animal id): 190 | ≤ 2 | –
isolate (source animal id): 192 | – | ≤ 2
isolate (source animal id): 193 | – | ≤ 2
isolate (source animal id): 194 | ≤ 2 | –
isolate (source animal id): 195 | ≤ 2 | ≤ 2
isolate (source animal id): 196 | – | ≤ 2
isolate (source animal id): 197 | ≤ 2 | ≤ 2
isolate (source animal id): 198 | – | ≤ 2
isolate (source animal id): 199 | – | ≤ 2
isolate (source animal id): 200 | – | ≤ 2
isolate (source animal id): 201 | – | ≤ 2
isolate (source animal id): 203 | – | ≤ 2
isolate (source animal id): 204 | – | ≤ 2
isolate (source animal id): 205 | – | ≤ 2
isolate (source animal id): 206 | – | ≤ 2
isolate (source animal id): 207 | – | ≤ 2
isolate (source animal id): 208 | – | ≤ 2
isolate (source animal id): 209 | – | ≤ 2
isolate (source animal id): 210 | – | ≤ 2
isolate (source animal id): 211 | ≤ 2 | –
isolate (source animal id): 213 | – | ≤ 2
isolate (source animal id): 214 | > 2 | –
isolate (source animal id): 216 | – | ≤ 2
isolate (source animal id): 222 | ≤ 2 | –
isolate (source animal id): 223 | ≤ 2 | ≤ 2
isolate (source animal id): 227 | – | ≤ 2
isolate (source animal id): 228 | ≤ 2 | –
isolate (source animal id): 229 | – | ≤ 2
isolate (source animal id): 230 | ≤ 2 | –
isolate (source animal id): 233 | – | ≤ 2
isolate (source animal id): 234 | – | ≤ 2
isolate (source animal id): 235 | ≤ 2 | –
isolate (source animal id): 236 | ≤ 2 | –
isolate (source animal id): 237 | – | ≤ 2
isolate (source animal id): 239 | ≤ 2 | –
isolate (source animal id): 241 | ≤ 2 | ≤ 2
isolate (source animal id): 244 | ≤ 2 | –
isolate (source animal id): 245 | – | ≤ 2
isolate (source animal id): 246 | ≤ 2 | –
isolate (source animal id): 247 | ≤ 2 | ≤ 2
isolate (source animal id): 250 | ≤ 2 | ≤ 2
isolate (source animal id): 252 | > 2 | –
isolate (source animal id): 254 | – | ≤ 2
isolate (source animal id): 255 | – | ≤ 2
isolate (source animal id): 258 | – | ≤ 2
isolate (source animal id): 261 | – | ≤ 2
isolate (source animal id): 262 | – | ≤ 2
isolate (source animal id): 268 | ≤ 2 | –
isolate (source animal id): 269 | – | ≤ 2
isolate (source animal id): 270 | – | ≤ 2
isolate (source animal id): 274 | – | ≤ 2
isolate (source animal id): 275 | – | ≤ 2
isolate (source animal id): 276 | – | ≤ 2
isolate (source animal id): 277 | – | ≤ 2
isolate (source animal id): 278 | – | ≤ 2
isolate (source animal id): 279 | – | ≤ 2
isolate (source animal id): 280 | – | > 2
isolate (source animal id): 282 | ≤ 2 | –
isolate (source animal id): 284 | – | ≤ 2
isolate (source animal id): 285 | > 2 | ≤ 2
isolate (source animal id): 287 | – | ≤ 2
isolate (source animal id): 289 | ≤ 2 | –
isolate (source animal id): 290 | ≤ 2 | ≤ 2
isolate (source animal id): 294 | – | ≤ 2
isolate (source animal id): 295 | – | ≤ 2
isolate (source animal id): 296 | ≤ 2 | ≤ 2
isolate (source animal id): 298 | ≤ 2 | –
isolate (source animal id): 301 | ≤ 2 | –
isolate (source animal id): 307 | – | ≤ 2
isolate (source animal id): 310 | > 2 | ≤ 2
isolate (source animal id): 311 | – | ≤ 2
isolate (source animal id): 312 | – | ≤ 2
isolate (source animal id): 313 | – | ≤ 2
isolate (source animal id): 315 | – | ≤ 2
isolate (source animal id): 316 | – | ≤ 2
isolate (source animal id): 318 | – | ≤ 2
isolate (source animal id): 319 | – | ≤ 2
isolate (source animal id): 320 | ≤ 2 | ≤ 2
isolate (source animal id): 321 | – | ≤ 2
isolate (source animal id): 322 | – | ≤ 2
isolate (source animal id): 324 | – | ≤ 2
isolate (source animal id): 325 | – | ≤ 2
isolate (source animal id): 328 | – | ≤ 2
isolate (source animal id): 330 | – | ≤ 2
isolate (source animal id): 331 | ≤ 2 | ≤ 2
isolate (source animal id): 333 | ≤ 2 | ≤ 2
isolate (source animal id): 336 | – | ≤ 2
isolate (source animal id): 337 | – | ≤ 2
isolate (source animal id): 339 | – | ≤ 2
isolate (source animal id): 340 | – | ≤ 2
isolate (source animal id): 341 | > 2 | ≤ 2
